ChEMBL document CHEMBL1201862, “PubChem BioAssay data set” (2004)
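Following 48 hours of exposure in 96-well plates, responses at five concentrations were used to interpolate endpoints linearly. Abbreviation: GI50, concentration required for 50% inhibition of growth.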 Activity calls are given as the source filed them. No stated cut-off is given here; in the data, active = GI50 up to about 1.1 µM and inactive = higher.

Tests used:
Test in all cases: DTP human tumour cell line panel, 48 h
HOP-62 = test system: HOP-62
MDA-MB-231 = test system: MDA-MB-231
MDA-MB-435 = test system: MDA-MB-435
SR = test system: SR
NCI-H522 = test system: NCI-H522
A498 = test system: A498
HL-60 = test system: HL-60
NCI/ADR-RES = test system: NCI/ADR-RES
ACHN = test system: ACHN
RXF 393 = test system: RXF 393
U-251 = test system: U-251
LOX IMVI = test system: LOX IMVI
NCI-H23 = test system: NCI-H23
COLO 205 = test system: COLO 205
PC-3 = test system: PC-3
DU-145 = test system: DU-145
SF-539 = test system: SF-539
SF-268 = test system: SF-268
CCRF-CEM = test system: CCRF-CEM
SNB-75 = test system: SNB-75

SMILES	GI50 (HOP-62)	GI50 (MDA-MB-231)	GI50 (MDA-MB-435)	GI50 (SR)	GI50 (NCI-H522)	GI50 (A498)	GI50 (HL-60)	GI50 (NCI/ADR-RES)	GI50 (ACHN)	GI50 (RXF 393)	GI50 (U-251)	GI50 (LOX IMVI)	GI50 (NCI-H23)	GI50 (COLO 205)	GI50 (PC-3)	GI50 (DU-145)	GI50 (SF-539)	GI50 (SF-268)	GI50 (CCRF-CEM)	GI50 (SNB-75)
COc1cc2c(cc1OC)C13CCN4CC5CCOC6CC(=O)N2C1C6C5CC43 (centres undefined)	> 100 µM (inactive)	> 100 µM (inactive)	> 100 µM (inactive)	2.65 µM (inactive)	> 100 µM (inactive)	> 100 µM (inactive)	> 100 µM (inactive)	> 100 µM (inactive)	> 100 µM (inactive)	> 100 µM (inactive)	> 100 µM (inactive)	> 100 µM (inactive)	> 100 µM (inactive)	> 100 µM (inactive)	> 100 µM (inactive)	> 100 µM (inactive)	> 100 µM (inactive)	> 100 µM (inactive)	54.5 µM (inactive)	–
COc1nc(C#CC(C)(C)C)nc(OC)n1	34.4 µM (inactive)	20.9 µM (inactive)	15 µM (inactive)	5.21 µM (inactive)	23.9 µM (inactive)	41.9 µM (inactive)	25.8 µM (inactive)	21 µM (inactive)	39 µM (inactive)	31.9 µM (inactive)	39.2 µM (inactive)	16.6 µM (inactive)	19.7 µM (inactive)	31.8 µM (inactive)	31 µM (inactive)	23.6 µM (inactive)	28.8 µM (inactive)	26.2 µM (inactive)	–	33.6 µM (inactive)
CN(c1ccccc1)S(=O)(=O)c1ccc([N+](=O)[O-])cc1	> 100 µM (inactive)	79.3 µM (inactive)	> 100 µM (inactive)	> 100 µM (inactive)	> 100 µM (inactive)	–	57 µM (inactive)	95.1 µM (inactive)	> 100 µM (inactive)	> 100 µM (inactive)	> 100 µM (inactive)	> 100 µM (inactive)	83.4 µM (inactive)	> 100 µM (inactive)	89.5 µM (inactive)	> 100 µM (inactive)	> 100 µM (inactive)	> 100 µM (inactive)	–	–
O=C1c2ccccc2C(=O)c2c(NCC(O)CO)ccc(NCC(O)CO)c21 (centres undefined)	61.1 µM (inactive)	97.9 µM (inactive)	> 100 µM (inactive)	61.4 µM (inactive)	67.3 µM (inactive)	> 100 µM (inactive)	63 µM (inactive)	> 100 µM (inactive)	40.5 µM (inactive)	–	61.2 µM (inactive)	28.3 µM (inactive)	96.2 µM (inactive)	37.2 µM (inactive)	78 µM (inactive)	38.6 µM (inactive)	62.1 µM (inactive)	89.1 µM (inactive)	41.4 µM (inactive)	56.4 µM (inactive)
COC(=O)[C@]12CSC[C@H]1C[C@H](c1ccccc1OC)N2	> 100 µM (inactive)	> 100 µM (inactive)	> 100 µM (inactive)	> 100 µM (inactive)	> 100 µM (inactive)	> 100 µM (inactive)	–	> 100 µM (inactive)	> 100 µM (inactive)	> 100 µM (inactive)	> 100 µM (inactive)	> 100 µM (inactive)	> 100 µM (inactive)	> 100 µM (inactive)	> 100 µM (inactive)	> 100 µM (inactive)	> 100 µM (inactive)	> 100 µM (inactive)	> 100 µM (inactive)	> 100 µM (inactive)
Clc1ccc(-c2cc(-c3nc4ccccc4[nH]3)no2)cc1	19.5 µM (inactive)	18.6 µM (inactive)	17 µM (inactive)	21.4 µM (inactive)	19.2 µM (inactive)	18.9 µM (inactive)	7.4 µM (inactive)	23.6 µM (inactive)	17.4 µM (inactive)	–	–	19.5 µM (inactive)	18.9 µM (inactive)	20 µM (inactive)	23.3 µM (inactive)	11.4 µM (inactive)	23.9 µM (inactive)	21.3 µM (inactive)	18.7 µM (inactive)	18.3 µM (inactive)
C1=N\c2ccc(cc2)-c2ccc(cc2)/N=C\c2ccc(cc2)OCc2cccc(n2)COc2ccc/1cc2	27.3 µM (inactive)	> 100 µM (inactive)	> 100 µM (inactive)	> 100 µM (inactive)	34.5 µM (inactive)	> 100 µM (inactive)	> 100 µM (inactive)	99.3 µM (inactive)	> 100 µM (inactive)	42.2 µM (inactive)	45.5 µM (inactive)	–	> 100 µM (inactive)	> 100 µM (inactive)	> 100 µM (inactive)	> 100 µM (inactive)	> 100 µM (inactive)	16.1 µM (inactive)	97.7 µM (inactive)	64.7 µM (inactive)
OC(CN(CCCl)CCCl)C(O)C(O)C(O)CN(CCCl)CCCl (centres undefined)	> 100 µM (inactive)	> 100 µM (inactive)	> 100 µM (inactive)	0.624 µM (active)	47.3 µM (inactive)	> 100 µM (inactive)	5.04 µM (inactive)	78.9 µM (inactive)	2.7 µM (inactive)	> 100 µM (inactive)	37.4 µM (inactive)	27.4 µM (inactive)	63.1 µM (inactive)	84.7 µM (inactive)	> 100 µM (inactive)	71.9 µM (inactive)	52.4 µM (inactive)	41.6 µM (inactive)	37.6 µM (inactive)	–
C=CCN1C[C@@H](C)N([C@@H](c2ccccc2)c2ccc(C(=O)N(CC)CC)cc2)C[C@@H]1C	> 100 µM (inactive)	> 100 µM (inactive)	> 100 µM (inactive)	> 100 µM (inactive)	> 100 µM (inactive)	> 100 µM (inactive)	> 100 µM (inactive)	> 100 µM (inactive)	> 100 µM (inactive)	–	> 100 µM (inactive)	–	> 100 µM (inactive)	> 100 µM (inactive)	> 100 µM (inactive)	> 100 µM (inactive)	> 100 µM (inactive)	> 100 µM (inactive)	–	–
Cc1cc(N(CCC#N)CCC#N)ccc1C(/N=N/c1ccc([N+](=O)[O-])cc1)=N\NC(=O)c1ccccc1	87.5 µM (inactive)	58.7 µM (inactive)	7.82 µM (inactive)	14.2 µM (inactive)	17 µM (inactive)	25.9 µM (inactive)	32.1 µM (inactive)	51.5 µM (inactive)	62.8 µM (inactive)	52.2 µM (inactive)	42.3 µM (inactive)	–	30.7 µM (inactive)	35.2 µM (inactive)	41.2 µM (inactive)	48 µM (inactive)	15 µM (inactive)	32.3 µM (inactive)	41.4 µM (inactive)	48.4 µM (inactive)
Cc1nn(C(=O)c2ccc(Cl)cc2)c2c1C(c1ccc(Cl)cc1)SC(=N)N2 (centres undefined)	> 10 µM (inactive)	> 10 µM (inactive)	> 10 µM (inactive)	> 10 µM (inactive)	> 10 µM (inactive)	–	> 10 µM (inactive)	> 10 µM (inactive)	> 10 µM (inactive)	> 10 µM (inactive)	> 10 µM (inactive)	> 10 µM (inactive)	> 10 µM (inactive)	> 10 µM (inactive)	> 10 µM (inactive)	> 10 µM (inactive)	> 10 µM (inactive)	> 10 µM (inactive)	> 10 µM (inactive)	> 10 µM (inactive)
O=C(/C=C/c1ccccc1)C[C@@H](O)C[C@@H]1CC=CC(=O)O1	16 µM (inactive)	14.4 µM (inactive)	4.86 µM (inactive)	2.84 µM (inactive)	2.64 µM (inactive)	16.7 µM (inactive)	2.18 µM (inactive)	20.5 µM (inactive)	12.7 µM (inactive)	–	8.69 µM (inactive)	1.95 µM (inactive)	8.95 µM (inactive)	5.5 µM (inactive)	16.3 µM (inactive)	17.2 µM (inactive)	3.57 µM (inactive)	10.1 µM (inactive)	1.85 µM (inactive)	16.7 µM (inactive)
O=C(O)/C=C/c1ccc(OS(=O)(=O)O)cc1	> 100 µM (inactive)	> 100 µM (inactive)	> 100 µM (inactive)	> 100 µM (inactive)	> 100 µM (inactive)	> 100 µM (inactive)	> 100 µM (inactive)	> 100 µM (inactive)	> 100 µM (inactive)	1.49 µM (inactive)	> 100 µM (inactive)	> 100 µM (inactive)	> 100 µM (inactive)	> 100 µM (inactive)	> 100 µM (inactive)	> 100 µM (inactive)	> 100 µM (inactive)	> 100 µM (inactive)	–	> 100 µM (inactive)
CC1=C(C(=O)NNC(=O)C[N+](C)(C)C)CC(C(=O)NNC(=O)C[N+](C)(C)C)=C(C)N1	> 100 µM (inactive)	> 100 µM (inactive)	> 100 µM (inactive)	35.6 µM (inactive)	> 100 µM (inactive)	61.7 µM (inactive)	24.9 µM (inactive)	> 100 µM (inactive)	> 100 µM (inactive)	> 100 µM (inactive)	> 100 µM (inactive)	> 100 µM (inactive)	> 100 µM (inactive)	> 100 µM (inactive)	> 100 µM (inactive)	> 100 µM (inactive)	> 100 µM (inactive)	> 100 µM (inactive)	21.8 µM (inactive)	–
CC(=O)c1cc2c(s1)C(=O)c1scc(C(C)=O)c1C2=O	0.467 µM (active)	0.225 µM (active)	0.224 µM (active)	0.107 µM (active)	0.378 µM (active)	2.34 µM (inactive)	–	0.24 µM (active)	0.248 µM (active)	0.348 µM (active)	0.228 µM (active)	0.0711 µM (active)	0.432 µM (active)	1.97 µM (inactive)	0.605 µM (active)	1.52 µM (inactive)	1.21 µM (inactive)	0.319 µM (active)	0.235 µM (active)	0.598 µM (active)
